Among the data in patent US10829452B2, “Histone methyltransferase inhibitors” (GLOBAL BLOOD THERAPEUTICS, INC., priority 2016, dated 2020) are IC50 values, retold here.

Structures can show the parent of a compound that is named as a salt.

In this assay the target is T1, G9a (Homo sapiens, UniProt Q96KQ7).
T1 sequence (Q96KQ7 1-1210): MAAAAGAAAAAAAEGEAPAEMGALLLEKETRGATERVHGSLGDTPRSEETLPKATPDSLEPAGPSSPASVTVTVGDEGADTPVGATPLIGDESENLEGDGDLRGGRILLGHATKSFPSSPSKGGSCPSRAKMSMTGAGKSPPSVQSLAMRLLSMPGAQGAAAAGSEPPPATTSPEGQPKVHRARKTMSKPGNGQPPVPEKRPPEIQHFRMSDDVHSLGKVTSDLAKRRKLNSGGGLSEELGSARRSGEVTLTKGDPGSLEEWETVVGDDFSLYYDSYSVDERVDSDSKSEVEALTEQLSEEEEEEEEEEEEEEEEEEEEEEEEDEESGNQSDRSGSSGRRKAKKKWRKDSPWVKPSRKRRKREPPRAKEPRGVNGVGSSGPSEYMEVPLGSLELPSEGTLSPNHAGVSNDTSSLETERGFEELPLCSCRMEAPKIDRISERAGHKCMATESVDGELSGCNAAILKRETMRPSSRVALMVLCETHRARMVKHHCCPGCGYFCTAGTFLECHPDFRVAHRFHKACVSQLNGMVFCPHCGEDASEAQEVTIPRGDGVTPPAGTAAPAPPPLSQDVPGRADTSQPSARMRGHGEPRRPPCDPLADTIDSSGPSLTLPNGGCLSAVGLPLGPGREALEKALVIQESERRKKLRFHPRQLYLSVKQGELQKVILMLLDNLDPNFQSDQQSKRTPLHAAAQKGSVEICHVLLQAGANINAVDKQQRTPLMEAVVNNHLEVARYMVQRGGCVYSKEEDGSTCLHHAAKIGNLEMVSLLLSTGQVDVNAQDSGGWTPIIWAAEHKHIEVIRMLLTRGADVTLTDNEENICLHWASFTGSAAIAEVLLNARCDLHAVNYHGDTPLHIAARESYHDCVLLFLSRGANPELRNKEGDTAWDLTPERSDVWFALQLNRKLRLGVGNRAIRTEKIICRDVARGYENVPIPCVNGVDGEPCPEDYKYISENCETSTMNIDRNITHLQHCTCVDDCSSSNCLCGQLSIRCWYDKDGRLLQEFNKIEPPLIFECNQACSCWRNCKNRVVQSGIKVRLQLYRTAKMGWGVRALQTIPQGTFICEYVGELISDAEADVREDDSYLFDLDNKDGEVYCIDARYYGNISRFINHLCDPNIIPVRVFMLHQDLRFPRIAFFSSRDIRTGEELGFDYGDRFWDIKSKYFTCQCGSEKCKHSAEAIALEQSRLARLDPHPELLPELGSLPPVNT
The assay can be described thus: G9a AlphaLISA enzymatic activity assay. It is filed as biochemical. The note with it: 0.15 nM G9a, 15 uM S-adenosyl-methionine, 100 nM biotinylated histone 3 peptide (1-21), 1 hour at room temperature; read-out: G9a in (uM) (IC50, concentration that produced 50% inhibition). An outline of the steps:
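Human G9a (0.15 nM) methylated 100 nM biotinylated histone H3(1-21) peptide with 15 uM SAM in Tris-HCl pH9 buffer with NaCl, Tween-20 and DTT, 1 h at room temperature. H3K9me2 was detected by AlphaLISA acceptor/streptavidin donor beads (20 ug/mL each); IC50 from percent inhibition across compound dilutions.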
In the case of `COc1cc2c3c(c(NC(C)C)nc2c(F)c1OCCCN1CCCC1)CCC3` [Example 63, 6-fluoro-8-methoxy-N-(propan-2-yl)-7-[3-(pyrrolidin-1-yl)propoxy]-1H,2H,3H-cyclopenta[c]quinolin-4-amine formate], the IC50 is 2.3 µM. For `CNc1nc2cc(OCCCN3CCCC3)c(OC)cc2c2c1CCC(C)N2` (stereo not shown) [Example 29, 9-methoxy-N,2-dimethyl-8-[3-(pyrrolidin-1-yl)propoxy]-1H,2H,3H,4H-benzo[h]1,6-naphthyridin-5-amine formate] the value was 0.009 µM.

As for `CNc1nc2cc(OCCCN3CCCC3)c(OC)cc2c2c1COC2` [Example 59, 8-methoxy-N-methyl-7-[3-(pyrrolidin-1-yl)propoxy]-1H,3H-furo[3,4-c]quinolin-4-amine formate], the IC50 is 0.23 µM. The same measure for `COc1cc2c3c(cnc2cc1OCCCN1CCCC1)CCCC3` [Example 40, 2-methoxy-3-[3-(pyrrolidin-1-yl)propoxy]-7,8,9,10-tetrahydrophenanthridine trifluoroacetate]: 1.3 µM; for `CNc1nc2cc(OCCCN3CCCC3)c(OC)cc2c2c1CCN2` [Example 22, 8-methoxy-N-methyl-7-[3-(pyrrolidin-1-yl)propoxy]-1H,2H,3H-pyrrolo[3,2-c]quinolin-4-amine trifluoroacetate]: 0.003 µM; for `COc1cc2c3c(c(NC4CCCC4)nc2cc1OCCCN1CCCC1)CCC3` [Example 8, N-cyclopentyl-8-methoxy-7-[3-(pyrrolidin-1-yl)propoxy]-1H,2H,3H-cyclopenta[c]quinolin-4-amine trifluoroacetate]: 0.04 µM. For `COc1cc2c3c(c(C4=CCCC4)nc2cc1OCCCN1CCCC1)CC(C)(C)N3` [Example 83, 1-(3-{[4-(cyclopent-1-en-1-yl)-8-methoxy-2,2-dimethyl-1H,2H,3H-pyrrolo[3,2-c]quinolin-7-yl]oxy}propyl)pyrrolidine] the value was 0.009 µM; for `COc1cc2c3c(c(NC4CC4)nc2cc1OCCCN1CCCC1)COC3` [Example 48, N-cyclopropyl-8-methoxy-7-[3-(pyrrolidin-1-yl)propoxy]-1H,3H-furo[3,4-c]quinolin-4-amine], 0.97 µM; for `COc1cc2c3c(c(NCC4CCC4)nc2cc1OCCCN1CCCC1)CCC3` [Example 49, N-(cyclobutylmethyl)-8-methoxy-7-[3-(pyrrolidin-1-yl)propoxy]-1H,2H,3H-cyclopenta[c]quinolin-4-amine formate], 0.046 µM. On to `CCNc1nc2cc(OCCCN3CCCC3)c(OC)cc2c2c1COC2` [Example 60, N-ethyl-8-methoxy-7-[3-(pyrrolidin-1-yl)propoxy]-1H,3H-furo[3,4-c]quinolin-4-amine formate], for which the IC50 stood at 0.21 µM. With `COc1cc2c3c(c(C)nc2cc1OCCCN1CCCC1)CCCCN3` [Example 82, 1-[3-({10-methoxy-6-methyl-1H,2H,3H,4H,5H-azepino[3,2-c]quinolin-9-yl}oxy)propyl]pyrrolidine trifluoroacetate], the IC50 came out at 0.006 µM. Turning to `CNc1nc2cc(OCCCN3CCCC3)c(OC)cc2c2c1CCCCN2` [Example 33, 10-methoxy-N-methyl-9-[3-(pyrrolidin-1-yl)propoxy]-1H,2H,3H,4H,5H-azepino[3,2-c]quinolin-6-amine formate], the IC50 came out at 0.012 µM. The same measure for `COc1cc2c3c(c(NCCC(C)C)nc2cc1OCCCN1CCCC1)CC(C)(C)C3` [Example 87, 8-methoxy-2,2-dimethyl-N-(3-methylbutyl)-7-[3-(pyrrolidin-1-yl)propoxy]-1H,2H,3H-cyclopenta[c]quinolin-4-amine formate]: 0.15 µM.

On to `COc1cc2c3c(c(C4CCCCC4)nc2cc1OCCCN1CCCC1)CCC3` [Example 110, 1-[3-({4-cyclohexyl-8-methoxy-1H,2H,3H-cyclopenta[c]quinolin-7-yl}oxy)propyl]pyrrolidine trifluoroacetate], for which the IC50 was found to be 1.4 µM. Regarding `COc1cc2c3c(c(N[C@H]4CC[C@H](O)CC4)nc2cc1OCCCN1CCCC1)CCC3` [Example 123, (1R,4R)-4-({8-methoxy-7-[3-(pyrrolidin-1-yl)propoxy]-1H,2H,3H-cyclopenta[c]quinolin-4-yl}amino)cyclohexan-1-ol formate], the IC50 was found to be 0.17 µM. The same measure for `COc1cc2c3c(c(NC4CCN(C(C)C)CC4)nc2cc1OCCCN1CCCC1)CCC3` [Example 43, N-{8-methoxy-7-[3-(pyrrolidin-1-yl)propoxy]-1H,2H,3H-cyclopenta[c]quinolin-4-yl}-1-(propan-2-yl)piperidin-4-amine formate]: 1.7 µM. For `COc1cc2c3c(c(O)nc2cc1OCCCN1CCCC1)CCCC3` [Example 38, 2-methoxy-3-[3-(pyrrolidin-1-yl)propoxy]-7,8,9,10-tetrahydrophenanthridin-6-ol trifluoroacetate] the value was 3 µM; for `CCNc1nc2cc(OCCCN3CCCC3)c(OC)cc2c2c1CC(C)(C)C2` [Example 74, N-ethyl-8-methoxy-2,2-dimethyl-7-[3-(pyrrolidin-1-yl)propoxy]-1H,2H,3H-cyclopenta[c]quinolin-4-amine formate], 0.015 µM; for `COc1cc2c3c(c(C4CC4)nc2cc1OCCCN1CCCC1)CCCCN3` [Example 80, 1-[3-({6-cyclopropyl-10-methoxy-1H,2H,3H,4H,5H-azepino[3,2-c]quinolin-9-yl}oxy)propyl]pyrrolidine trifluoroacetate], 0.009 µM.

On to `COc1cc2c3c(c(NC(C)C)nc2cc1OCCCN1CCCCC1)CCC3` [Example 85, 8-methoxy-7-[3-(piperidin-1-yl)propoxy]-N-(propan-2-yl)-1H,2H,3H-cyclopenta[c]quinolin-4-amine formate], for which the IC50 came to 0.66 µM. In the case of `CNc1nc2cc(OCCCN3CCCC3)c(OC)cc2c2c1CCC2` [Example 1, 8-methoxy-N-methyl-7-[3-(pyrrolidin-1-yl)propoxy]-1H,2H,3H-cyclopenta[c]quinolin-4-amine formate], the IC50 came out at 0.031 µM. With `COc1cc2c3c(c(C(C)C)nc2cc1OCCCN1CCCC1)CCCCN3` [Example 81, 1-(3-{[10-methoxy-6-(propan-2-yl)-1H,2H,3H,4H,5H-azepino[3,2-c]quinolin-9-yl]oxy}propyl)pyrrolidine trifluoroacetate], the IC50 stood at 0.009 µM. The same measure for `COc1cc2c3c(c(O)nc2cc1OCCCN1CCCC1)CCC3` [Example 37, 8-methoxy-7-[3-(pyrrolidin-1-yl)propoxy]-1H,2H,3H-cyclopenta[c]quinolin-4-ol trifluoroacetate]: 1.3 µM. The same measure for `COc1cc2c3c(c(NC(C)C)nc2cc1OCCCN1CCCC1)CC(C)C3` (stereo not shown) [Example 6, 8-methoxy-2-methyl-N-(propan-2-yl)-7-[3-(pyrrolidin-1-yl)propoxy]-1H,2H,3H-cyclopenta[c]quinolin-4-amine formate]: 0.027 µM; for `COc1cc2c3c(c(NC(C)C)nc2cc1OCCCN1CCOCC1)CCC3` [Example 112, 8-methoxy-7-[3-(morpholin-4-yl)propoxy]-N-(propan-2-yl)-1H,2H,3H-cyclopenta[c]quinolin-4-amine trifluoroacetate]: > 10 µM.

Take `CCCNc1nc2cc(OCCCN3CCCC3)c(OC)cc2c2c1CCC2` [Example 104, 8-methoxy-N-propyl-7-[3-(pyrrolidin-1-yl)propoxy]-1H,2H,3H-cyclopenta[c]quinolin-4-amine trifluoroacetate]: the IC50 was found to be 0.02 µM. The same measure for `CCN(CC)CCCOc1cc2nc(NC(C)C)c3c(c2cc1OC)CCC3` [Example 93, 7-[3-(diethylamino)propoxy]-8-methoxy-N-(propan-2-yl)-1H,2H,3H-cyclopenta[c]quinolin-4-amine formate]: 0.39 µM. The same measure for `COc1cc2c3c(c(N[C@H]4CCCC[C@@H]4O)nc2cc1OCCCN1CCCC1)CCC3` [Example 122, (1S,2S)-2-({8-methoxy-7-[3-(pyrrolidin-1-yl)propoxy]-1H,2H,3H-cyclopenta[c]quinolin-4-yl}amino)cyclohexan-1-ol formate]: 0.043 µM.
